Data: ChEMBL document CHEMBL5579832, “Design, synthesis, and biological evaluation of pyrido[2,3-d]pyrimidin-7(8H)-one derivatives as potent USP1 inhibitors” (Eur J Med Chem, 2024)
Calls of active or inactive are those of the source. The rule behind the calls is not given here.

What was measured:
[1] = system: Olaparib-resistant MDA-MB-436; test: Induction of cell cycle arrest in human Olaparib-resistant MDA-MB-436 cell assessed as accumulation of cells in G2/M phase at 1 uM incubated for 24 hrs in the presence of olaparib by PI staining based flow cytometry analysis; assay type: functional
[2] = Tmax in male ICR mouse at 10 mg/kg, po administered as single dose and measured after 24 hrs; assay type: ADME, organism-based; conditions: in vivo
[3] = Half life in male ICR mouse at 10 mg/kg, po administered as single dose and measured after 24 hrs; assay type: ADME, organism-based; conditions: in vivo
[4] = molecular target: T1, Ubiquitin carboxyl-terminal hydrolase 1/WD repeat-containing protein 48 (Homo sapiens) (UniProt O94782+Q8TAF3); test: Inhibition of USP1/UAF1 in human NCI-H1299 cells assessed as increase in Ub-PCNA levels at 20 nM incubated for 24 hrs by Western blot analysis; assay type: cell-based
[5] = system: Olaparib-resistant MDA-MB-436; test: Inhibition of colony formation in human Olaparib-resistant MDA-MB-436 cell at 100 nM measured after 7 days in the presence of olaparib by SRB staining based assay relative to control; assay type: functional; conditions: Olaparib-resistant MDA-MB-436, 168 h, time 7 day
[6] = molecular target: T2, Ubiquitin carboxyl-terminal hydrolase 4 (Homo sapiens) (UniProt Q13107); test: Inhibition of recombinant human 6His-tagged USP4 using diubiquitin as a substrate at 0 to 10 uM preincubated for 15 mins followed by substrate addition and measured after 2 hrs by SDS-PAGE analysis; conditions: dose 0-10 µM, time 135.0 min
T2 sequence (whole entry): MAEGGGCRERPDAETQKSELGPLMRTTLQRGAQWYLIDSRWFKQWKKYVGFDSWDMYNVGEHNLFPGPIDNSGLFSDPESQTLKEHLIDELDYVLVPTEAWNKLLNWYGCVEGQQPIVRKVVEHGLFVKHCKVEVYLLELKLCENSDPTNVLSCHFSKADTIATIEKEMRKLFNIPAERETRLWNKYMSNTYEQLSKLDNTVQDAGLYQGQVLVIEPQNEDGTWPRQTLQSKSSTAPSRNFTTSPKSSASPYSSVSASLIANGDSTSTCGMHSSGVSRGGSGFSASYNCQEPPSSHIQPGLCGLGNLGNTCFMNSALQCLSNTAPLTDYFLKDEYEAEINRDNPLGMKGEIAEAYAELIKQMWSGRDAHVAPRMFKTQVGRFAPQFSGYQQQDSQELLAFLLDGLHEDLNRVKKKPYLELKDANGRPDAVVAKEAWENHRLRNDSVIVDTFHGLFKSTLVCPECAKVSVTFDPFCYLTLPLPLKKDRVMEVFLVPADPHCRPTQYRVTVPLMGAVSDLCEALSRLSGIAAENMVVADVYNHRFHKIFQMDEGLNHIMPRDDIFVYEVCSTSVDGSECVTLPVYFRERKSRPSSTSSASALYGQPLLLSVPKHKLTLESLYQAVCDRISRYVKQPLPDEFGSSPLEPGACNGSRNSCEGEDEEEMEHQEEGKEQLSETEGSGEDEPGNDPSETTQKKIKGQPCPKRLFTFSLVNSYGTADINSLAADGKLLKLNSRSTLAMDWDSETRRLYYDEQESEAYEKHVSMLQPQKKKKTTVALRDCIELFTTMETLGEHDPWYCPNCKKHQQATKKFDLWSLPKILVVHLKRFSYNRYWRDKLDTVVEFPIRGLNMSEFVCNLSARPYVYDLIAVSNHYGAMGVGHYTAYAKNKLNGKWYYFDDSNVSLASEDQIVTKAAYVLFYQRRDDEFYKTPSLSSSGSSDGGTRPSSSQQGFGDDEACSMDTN

[7] = system: Olaparib-resistant MDA-MB-436; test: Inhibition of colony formation in human Olaparib-resistant MDA-MB-436 cell at 100 nM measured after 7 days by SRB staining based assay relative to control; assay type: functional; conditions: Olaparib-resistant MDA-MB-436, 168 h, time 7 day
[8] = AUC (0 to t) in male ICR mouse at 10 mg/kg, po administered as single dose and measured after 24 hrs; assay type: ADME, organism-based; conditions: in vivo
[9] = molecular target: Ubiquitin carboxyl-terminal hydrolase 9X (Homo sapiens) (UniProt Q93008); test: Inhibition of USP9X (unknown origin) using diubiquitin as a substrate at 0 to 10 uM preincubated for 15 mins followed by substrate addition and measured after 2 hrs by SDS-PAGE analysis; conditions: dose 0-10 µM, time 135.0 min
Chain of Ubiquitin carboxyl-terminal hydrolase 9X (Homo sapiens) (Q93008 whole entry): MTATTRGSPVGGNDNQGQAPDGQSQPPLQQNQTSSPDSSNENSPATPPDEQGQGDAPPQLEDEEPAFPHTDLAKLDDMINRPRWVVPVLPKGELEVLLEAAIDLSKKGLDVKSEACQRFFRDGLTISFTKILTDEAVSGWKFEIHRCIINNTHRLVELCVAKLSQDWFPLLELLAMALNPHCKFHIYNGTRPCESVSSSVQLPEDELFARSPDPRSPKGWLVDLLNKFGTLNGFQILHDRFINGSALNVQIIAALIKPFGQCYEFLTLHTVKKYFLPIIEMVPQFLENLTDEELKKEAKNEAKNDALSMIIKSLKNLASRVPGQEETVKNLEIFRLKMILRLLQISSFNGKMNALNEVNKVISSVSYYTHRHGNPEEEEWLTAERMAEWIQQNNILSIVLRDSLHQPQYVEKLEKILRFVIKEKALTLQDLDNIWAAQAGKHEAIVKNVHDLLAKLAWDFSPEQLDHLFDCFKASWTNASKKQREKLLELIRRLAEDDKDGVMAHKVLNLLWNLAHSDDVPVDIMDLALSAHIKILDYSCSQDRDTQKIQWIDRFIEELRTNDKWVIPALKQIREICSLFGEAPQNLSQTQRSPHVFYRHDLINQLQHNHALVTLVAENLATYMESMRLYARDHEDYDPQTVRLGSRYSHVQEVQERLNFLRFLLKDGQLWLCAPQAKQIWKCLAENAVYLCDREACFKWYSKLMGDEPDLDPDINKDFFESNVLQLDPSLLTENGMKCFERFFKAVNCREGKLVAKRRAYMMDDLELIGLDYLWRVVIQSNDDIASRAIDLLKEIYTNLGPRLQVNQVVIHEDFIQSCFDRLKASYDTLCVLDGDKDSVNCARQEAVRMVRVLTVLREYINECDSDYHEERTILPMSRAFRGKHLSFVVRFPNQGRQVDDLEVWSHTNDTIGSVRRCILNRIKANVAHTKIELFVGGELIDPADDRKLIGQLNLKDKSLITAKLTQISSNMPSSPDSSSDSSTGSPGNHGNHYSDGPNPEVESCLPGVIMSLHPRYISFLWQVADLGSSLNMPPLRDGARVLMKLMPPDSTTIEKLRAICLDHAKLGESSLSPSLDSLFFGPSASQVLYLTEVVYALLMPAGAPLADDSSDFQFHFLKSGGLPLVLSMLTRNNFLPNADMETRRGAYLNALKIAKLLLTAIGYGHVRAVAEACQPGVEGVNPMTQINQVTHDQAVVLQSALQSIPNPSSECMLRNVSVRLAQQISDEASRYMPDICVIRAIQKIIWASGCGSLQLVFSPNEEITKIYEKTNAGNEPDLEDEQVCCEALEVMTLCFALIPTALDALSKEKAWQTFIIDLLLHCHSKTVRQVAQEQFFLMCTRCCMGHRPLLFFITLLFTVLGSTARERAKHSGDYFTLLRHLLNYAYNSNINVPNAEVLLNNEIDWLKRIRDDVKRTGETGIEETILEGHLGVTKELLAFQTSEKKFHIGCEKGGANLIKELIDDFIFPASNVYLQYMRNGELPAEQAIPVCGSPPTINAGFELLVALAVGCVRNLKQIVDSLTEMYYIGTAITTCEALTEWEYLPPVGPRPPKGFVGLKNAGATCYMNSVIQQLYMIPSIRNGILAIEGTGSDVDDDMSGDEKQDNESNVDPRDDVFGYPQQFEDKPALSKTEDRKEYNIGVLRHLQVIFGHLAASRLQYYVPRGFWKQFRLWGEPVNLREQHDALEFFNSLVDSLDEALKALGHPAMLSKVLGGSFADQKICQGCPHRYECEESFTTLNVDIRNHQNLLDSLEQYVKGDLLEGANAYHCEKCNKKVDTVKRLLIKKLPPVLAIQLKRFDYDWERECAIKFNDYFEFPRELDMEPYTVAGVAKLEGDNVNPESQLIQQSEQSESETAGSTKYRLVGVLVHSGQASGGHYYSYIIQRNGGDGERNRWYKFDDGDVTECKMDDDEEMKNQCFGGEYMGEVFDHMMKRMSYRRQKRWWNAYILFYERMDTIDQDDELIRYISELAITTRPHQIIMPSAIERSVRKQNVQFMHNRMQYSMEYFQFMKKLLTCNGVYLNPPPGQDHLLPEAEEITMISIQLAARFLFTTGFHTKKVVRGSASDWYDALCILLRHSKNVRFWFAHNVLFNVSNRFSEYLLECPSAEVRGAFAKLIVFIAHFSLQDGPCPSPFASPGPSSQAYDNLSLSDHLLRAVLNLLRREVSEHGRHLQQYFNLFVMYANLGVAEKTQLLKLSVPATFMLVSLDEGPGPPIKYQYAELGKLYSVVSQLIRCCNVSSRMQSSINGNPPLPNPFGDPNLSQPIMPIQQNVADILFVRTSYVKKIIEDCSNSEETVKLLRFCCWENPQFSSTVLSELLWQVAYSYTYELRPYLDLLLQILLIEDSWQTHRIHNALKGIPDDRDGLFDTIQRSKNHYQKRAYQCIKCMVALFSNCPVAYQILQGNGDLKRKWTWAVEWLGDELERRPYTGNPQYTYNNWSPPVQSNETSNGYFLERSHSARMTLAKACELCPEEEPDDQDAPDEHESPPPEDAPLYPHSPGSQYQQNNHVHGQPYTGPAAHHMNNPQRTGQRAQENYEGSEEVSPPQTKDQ

[10] = molecular target: T1, Ubiquitin carboxyl-terminal hydrolase 1/WD repeat-containing protein 48 (Homo sapiens); conditions: NCI-H1299, dose 20-500 nM, time 24.0 hrs
[11] = molecular target: T1, Ubiquitin carboxyl-terminal hydrolase 1/WD repeat-containing protein 48 (Homo sapiens); test: Inhibition of USP1/UAF1 in human Olaparib-resistant MDA-MB-436 cell assessed as increase in Ub-PCNA level at 20 nM incubated for 24 hrs by Western blot analysis; assay type: cell-based

Tmax [2]: 0.25 h | half-life [3]: 7.61 h | Activity [4]: Active | inhibition [6]: inactive | AUC(0-t) at 24 h [8]: 35800 ng·h/mL | inhibition [9]: inactive | inhibition [10]: Dose-Dependent Effect | inhibition [11]: Active
Structure (SMILES): COc1ncnc(C2CC2)c1-c1ncc2ccc(=O)n(Cc3ccc(-c4nc(C(F)(F)F)cn4C(C)C)cc3)c2n1
Activity [1]: Active | inhibition at 0.1 µM [5]: 50% | inhibition at 0.1 µM [7]: 30%
